# In patent US6383814B1, “Cationic amphiphiles for intracellular delivery of therapeutic molecules” (Genzyme Corporation, priority 1994, dated 2002):
# Columns and labels:
# [1] = Transgene expression by protonation state of the amphiphile in transfecting composition with DOPE; conditions: amphiphile as free base; with DOPE zwitterion; plasmid DNA sodium salt in water
# Source text: An additional aspect of the invention concerns the protonation state of the cationic amphiphiles of the invention prior to their contacting plasmid DNA in order to form a therapeutic composition. It is within the practice of the invention to utilize fully protonated, partially protonated, or free base forms of the amphiphiles in order to form such therapeutic compositions. With respect to amphiphile No. 67 (spermine cholesterol carbamate), it has been observed that when providing this amphiphile for a transfecting composition with DOPE (itself provided as a zwitterion), transgene expression was best for the free base, but decreased if the amphiphile was prepared as an acetate salt. […] Under the circumstances described, the plasmid DNA provided for contacting with the amphiphile was prepared (without buffer) as a sodium salt in water.
# lungs of mice = experiment: CAT assay, parts B and C: intra-nasal, pCF1/CAT or pCF2/CAT vectors; conditions: mouse
# Source text: That the novel amphiphiles of the invention are an important contribution to the art is immediately seen by comparing their performance—as in vivo transfection enhancers—to that of closely related cationic amphiphiles that lack the novel T-shape. It has been determined that spermidine cholesterol carbamate provides a much greater level of enhancement than N^1-spermidine cholesteryl carbamate which contains the same number of carbon and nitrogen atoms in its cationic alkylamine component but which is linear and not “T-shaped”. Following generally the procedures of Example 3, part B, and using respectively 6 mM (as nucleotide), 1.5 mM, and 1.5 mM concentrations of DNA, amphiphile and of co-lipid, the transfection enhancement provided by spermidine cholesterol carbamate (amphiphile No.53), in relation to N^1-spermidine cholesteryl carbamate, was determined to be about 30 fold.
# Also following the procedures of Example 3, part B, and using respectively 4 mM (as nucleotide), 1 mM, and 2 mM concentrations of DNA, amphiphile and co-lipid, the transfection enhancement provided by spermine cholesterol carbamate (amphiphile No. 67)—in relation to N^1-thermospermine cholesteryl carbamate and N^1-spermine cholesteryl carbamate to which spermine cholesterol carbamate is similarly related—is at least about 30 fold.
# [2] = Transacylation reaction of amphiphile with co-lipid DOPE on co-storage; type: physicochemical
# Source text: Although heretofore unrecognized in the art, it has been determined also that certain co-lipids may react chemically with certain types of cationic amphiphiles under conditions of co-storage, there resulting new molecular species. Generation of such new species is believed to occur via mechanisms such as transacylation. In this regard, see FIG. 4 which depicts a transacylation reaction involving spermine cholesterol carbamate (No.67) and DOPE, there resulting lyso PE species and multiple forms of particular acyl-cationic amphiphile (designated No. 80).
# It is expected that these phenomena would also apply to lyophilized amphiphile/DOPE preparations.
# Accordingly, it is highly preferred to maintain such amphiphile/DOPE preparations at very cold temperatures, such as −70 degrees C.
# lungs of balb/c mice = tested on: lungs of balb/c mice
# Procedure: This assay was used to assess the ability of the cationic amphiphiles of the invention to transfect cells in vivo from live specimens. In the assay, the lungs of balb/c mice were instilled intra-nasally (the procedure can also be performed trans-tracheally) with 100 μl of cationic amphiphile:DNA complex, which was allowed to form during a 15-minute period prior to administration according to the following procedure. The amphiphile (premixed with co-lipid, see below) was hydrated in water for 10 minutes, a period sufficient to yield a suspension at twice the final concentration required. This was vortexed for two minutes and aliquoted to provide 55 microliter quantities for each mouse to be instilled. Similarly, DNA encoding the reporter (CAT) gene was diluted with water to a concentration twice the required final concentration, and then aliquoted at 55 microliters for each mouse to be instilled. The lipid was gently combined with the DNA (in a polystyrene tube), and the complex allowed to form for 15 minutes before the mice were instilled therewith.
# The plasmid used (pCMVHI-CAT, see Example 4) provides an encoding DNA for chloramphenicol transferase enzyme. Specifics on the amphiphile:DNA complexes are provided below.
# Two days following transfection, mice were sacrificed, and the lungs and trachea removed, weighed, and homogenized in a buffer solution (250 mM Tris, pH 7.8, 5 mM EDTA). The homogenate was darifed by centrifugation, and the deacetylases therein were inactivated by heat treatment at 70° C. for 10 minutes. Lysate was incubated overnight with acetyl coenzyme A and C^14-chloramphenicol. CAT enzyme activity was then visualized by thin layer chromatography (“TLC”) following an ethyl acetate extraction.
# The presence of the enzyme CAT will cause an acetyl group to be transferred from acetyl coenzyme A to C^14-chloramphenicol. The acetylated/radiolabeled chloramphenicol migrates faster on a TLC plate and thus its presence can be detected.
# With respect to the comparison provided by FIG. 10, the following conditions are of note. The transfection solution for spermidine cholesterol carbamate contained 6 mM DNA measured as concentration of nucleotide, and 1.5 mM of cationic amphiphile. […] For transfection with DC-chol, the molar ratio of DC-chol to DOPE was 3:2, and the concentrations of cationic amphiphile and of DNA (as nucleotide) were 1.3 mM and 0.9 mM, respectively. For transfection with DMRIE, the molar ratio of DMRIE to DOPE was 1:1 and the concentrations of cationic amphiphile and of DNA were 1.7 mM and 12 mM, respectively.
# [3] = tested on: Primary nasal polyp cells from a cystic fibrosis patient (Δ F508); experiment: cAMP-stimulated transepithelial chloride secretion in modified Ussing chamber after pCMV-CFTR transfection; type: cell-based, human; conditions: 1:1 with DOPE; 42 μmolar amphiphile, 60 μmolar pCMV-CFTR; forskolin and IBMX
# Procedure: Primary (non-immortalized) nasal polyp cells from an adult cystic fibrosis patient (homozygous for the Δ F508mutation) were grown on collagen-coated permeable filter supports (Millicells) to form a polarized and confluent epithelial monolayer. Once the monolayer was electrically tight (about 5 to 7 days post seeding, and as indicated by the development of resistance across the cell sheet), the apical surface can be exposed to formulations of cationic amphiphile: DNA complex.
# In this case, the amphiphile (spermidine cholesterol carbamate) was provided as a 1:1 (by mole) mixture with DOPE, and this mixture was then complexed with pCMV-CFTR plasmid vector (a construct encoding wild type human cystic fibrosis transmembrane conductance regulator protein, see above). Concentrations in the final mixture were 42 μmolar of spermidine cholesterol carbamate (and also of DOPE) and 60 μmolar (based on morality in nucleotides) of the plasmid expression vector.
# Expression of CFTR was determined by measuring cAMP-stimulated transepithelial chloride secretion in a modified Ussing chamber, Zabner et al., Nature Genetics, 6, 75-83 […]. The mucosal side of the epithelium was bathed in Ringer's bicarbonate solution bubbled with 95% O2 and 5% CO2. […] Transepithelial voltage was clamped to 0 m V and short circuit current was recorded. […]
# [4] = tested on: Immortalized human cystic fibrosis airway cells (CFT-1); experiment: SPQ assay of cAMP-stimulated Cl− channel activity after pCMV-CFTR transfection; type: cell-based
# Procedure: Immortalized human cystic fibrosis airway cells (CFT-1, as above) were used.
# In preparation for the assay, the cells were grown on glass coverslips until approximately 60% confluent The cells were hen transfected with a complex of spermidine cholesterol carbamate:DOPE (1:1) and a plasmid(pCMV-CFTR) containing a cDNA that encodes wild type human CFTR pCMV-CFTR plasmid is a construct containing the encoding sequence for CFTR and the following regulatory elements, a CMV promoter and enhancer, and an SV40 polyadenylation signal. Additional constructs suitable for the practice of this example include pMT-CFTR, Cheng et al., Cell, 63,827-834 (1990). The complex used was 10.5 μmolar of spermidine cholesterol carbamate (also of DOPE) and 30 μmolar of pCMV-CFTR based on nucleotide.
# 48 hours after amphiphile-mediated transfection, cells were tested for cAMP-stimulated Cl^− channel activity using the 6-methoxy-N-(3-sulfopropyl)quinolinium (“SPQ”) assay. […] In the assay, cAMP-dependent Cl^− channel activity was assessed using “SPQ” (from Molecular Probes, Eugene, Oreg.), a halide-sensitive fluorophore. Increases in halide permeability results in a more rapid increase in SPQ fluorescence, and the rate of change (rather than the absolute change in fluorescence) is the important variable in assessing Cl^− permeability. […]
# [5] = Excipient selection against amphiphile/DNA aggregate formation; type: physicochemical; conditions: particularly as DNA concentration is increased
# Source text: Additionally, the therapeutic compositions of the invention can in general be formulated with excipients (such as the carbohydrates lactose, trehalose, sucrose, mannitol, maltose or galactose) and may also be lyophilized (and then rehydrated) in the presence of such excipients prior to use. Conditions of optimized formulation for each amphiphile of the invention are capable of determination by those skilled in the pharmaceutical art. […] Addition of such excipients maintains the consistency of lyophilized pharmaceutical compositions during storage, and prevent difficulties such as aggregation, or insolubity, that may likely occur upon rehydration from the lyophilized state.
# lung and heart = experiment: Intravenous delivery of pCF-1CAT complex, CAT expression in organs; type: in vivo, BALB/c mouse; conditions: for organ distribution of CAT expression: DNA 0.9 mM, i.v. tail vein, 48 h
# Procedure: The reporter plasmid pCF-1CAT (Example 4) was used and was purified to minimize endotoxin (<1 EU/mg pDNA), and also chromosomal DNA contamination (<2%). Amphiphile No. 53 (1:1 with DOPE)/DNA complex was prepared according to the procedures of Example 3. The amphiphile was provided as the free base, the plasmid was prepared as a sodium salt in water, and the DOPE was provided in zwitterionic form.
# The animal model was the BALB/c mouse. Females 6-8 weeks old weighing 16-18 g were injected intravenously using the tail vein, using 5 animals per group. The volume of lipid:pDNA complex used was 100 μl in all experiments. Unless noted otherwise, mice were sacrificed 48 h following administration of the complex. Organs were frozen immediately on dry ice to store for subsequent analysis.
# Expression of chloramphenicol acetyl transferase (CAT) was quantitated using a radiochemical assay for CAT enzymatic activity. Organs Were weighed and homogenized on ice in a lysis buffer containing protease inhibitors. The lysate was freeze-thawed 3×, centrifuged, and heated to 65° C. to inactivate deacetylases before adding it to a reaction mixture containing ^14C-chloraamphenicol. After an incubation at 37° C., the mixture was extracted with ethyl acetate, concentrated, spotted onto TLC plates and eluted with CHCl3/MeOH. Spots corresponding to the acylated reaction products were quantitated (Betagen) and converted to ng CAT activity using authentic CAT standards.
# [6] = tested on: CFT-1 cell line (human cystic fibrosis bronchial epithelial cells); experiment: Cell transfection assay (β-galactosidase expression); type: cell-based; conditions: 1:1 mixture with DOPE, pCMVβ
# Procedure: Following combination of the solutions, a thin film was produced by removing chloroform from the mixture by evaporation under reduced pressure (20 mm Hg). The film was further dried under vacuum (1 mm Hg) for 24 hours.
# The resulting suspension was then diluted with 4 ml of water to yield a solution that is 670 μM in cationic amphiphile and 670 μM in neutral colipid.
# For preparation of the transfecting solution, DNA encoding for β-galactosidase (pCMVβ, ClonTech., Palo Alto, Calif.) was dissolved in OptiMEM culture medium (Gibco/BRL No. 31885-013).
# The resulting 335 μM solutions were then serially diluted 7 times to generate 8 separate amphiphile-containing solutions having concentrations ranging from 335 μM to 2.63 μM, with each resultant solution having a volume of 165 μl. Thus, 64 solutions were prepared in all, there being 8 wells each of 8 different concentrations of amphiphile/DOPE.
# Independently, DNA solutions (165μl, 960 μM) were pipetted into 8 wells containing OptiMEM (165 μl), and the resulting 480 μM solutions were then serially diluted 7 times to generate 8 separate 165 μl solutions from each well, with the concentrations of DNA in the wells ranging from 480 μM to 3.75 μM. […]
# [7] = 1.0-1.5 mM amphiphile, cholesterol 1:1, DNA 4.0-6.0 mM, intra-nasal
compound,measurement,setting,value
"CC(C)CCCC(C)C1CCC2C3CC=C4CC(OC(=O)N(CCCN)CCCCNCCCN)CCC4(C)C3CCC12C (stereo not drawn) [amphiphile No. 67, N^4-spermine cholesteryl carbamate]",transgene expression,[1],best
same,activity of amphiphile (in vivo transfection),lungs of mice,highly active
same,in vivo transfection in comparison with non T-shaped amphiphiles having equivalent cationic alkylamine structure,lungs of mice,superior transfectants
same,transacylation with DOPE,"[2]; amphiphile as mono, di, or tri acetate salt",slow transacylations
same,transacylation with DOPE,[2]; aqueous solution where bilayer-containing structures such as liposomes can form,will permit transacylation
same,transacylation with DOPE,[2]; mixture of amphiphile and DOPE in chloroform solvent,does not appear to participate
"1,2-dimyristyloxypropyl-3-dimethyl-hydroxyethyl ammonium bromide [DMRIE, reference compound]",CAT activity in lung,"lungs of balb/c mice; 1:1 molar with DOPE, 1.7 mM DMRIE, 1.7 mM DOPE, 1.2 mM plasmid DNA as nucleotide",1 to 2 ng activity per 100 mg lung tissue
"CC(C)CCC[C@@H](C)[C@H]1CC[C@H]2[C@@H]3CC=C4C[C@@H](OC(=O)N(CCCCNCCCN)CCCNCCCN)CC[C@]4(C)[C@H]3CC[C@]12C [amphiphile No. 75, N^1,N^8-Bis(3-aminopropyl)-N^4-spermidine cholesteryl carbamate]",activity of amphiphile (in vivo transfection),lungs of mice,highly active
"CC(C)CCCC(C)C1CCC2C3CC=C4CC(OC(=O)N(CCCN)CCCCN)CCC4(C)C3CCC12C (stereo not drawn) [amphiphile No. 53, N^4-spermidine cholesteryl carbamate]",cAMP-stimulated current,[3],0.5 to 2.5 μampere/cm^2
same,transferring CFTR-encoding plasmid into immortalized CF airway cells,[4],effective
same,enhancement of in vivo transfection (ng CAT activity per 100 mg tissue) in relation to DMRIE and DC-Chol,"lungs of balb/c mice; 1.5 mM amphiphile, 1:1 DOPE, 6 mM DNA (nucleotide), intra-nasal, 2 days",≥ 20 fold
same,"transfection efficiency (ng CAT/100 mg tissue) with cholesterol as co-lipid, compared with DOPE as co-lipid",lungs of balb/c mice; [7],less effective
same,"transfection with cholesterol as co-lipid, compared with DC-Chol/DOPE",lungs of balb/c mice; [7],substantially more effective
same,toxicity to the target cells,"lungs of balb/c mice; about 0.75 mM amphiphile and 3.0 mM plasmid, versus the optimal 1.5 mM/6 mM",less toxic
same,excipient preferred to prevent formation of amphiphile/DNA aggregates,[5],sucrose is preferred over mannitol
same,activity of amphiphile (in vivo transfection),lungs of mice,highly active
same,in vivo transfection in comparison with non T-shaped amphiphiles having equivalent cationic alkylamine structure,lungs of mice,superior transfectants
same,organ distribution of CAT expression,lung and heart; amphiphile/DNA molar ratio less than about 0.5,strongly weighted toward the lung
same,organ distribution of CAT expression,lung and heart; amphiphile/DNA ratio of 1.25,substantial expression was found in the heart
same,targeting to the lung over a range of amphiphile/DNA ratios,"lung and heart; constant DNA concentration 0.9 mM, i.v.",remained relatively constant
same,"transfection efficiency improved by a factor, relative to DMRIE:DOPE (1:1)",[6],about 5
